# Experimental data: article PMC7377376, “Drug targeting CYP2E1 for the treatment of early-stage alcoholic steatohepatitis” (PLoS ONE, 2020)
# Target: rat liver microsomes
# Test: Difference spectra titration of rat liver microsomes
# Details: one specific binding site
# Experimental: Liver microsomes were prepared as follows: Rat liver was homogenized in 33 mM TRIS*HCl pH 7.4, 33 mM KCl, 1 mM EDTA, 250 mM sucrose and protease inhibitors. The homogenate was centrifuged first at 600 g then at 6,500 g for 10 minutes to separate nuclei and mitochondria. Supernatant was centrifuged at 105,000 g for 60 minutes. The pellet (microsomal fraction) was dissolved in 10 mM TRIS*HCl pH 7.4, 10 mM EDTA, 50% glycerol and stored at -80°C [20].
# Difference spectra measurements were performed in tandem cuvettes at 37°C. The sample as well as the reference chamber contained rat liver microsomes in 100 mM HEPES buffer (pH 7.6). The baseline was recorded between 365 and 500 nm. Varying concentrations of 12-Imidazolyl-dodecan-1-yl-phosphocholine (5–95 μM) were added to rat microsomes. Difference spectra were obtained after the system reached equilibrium.
structure (smiles),measurement,value
OCCCCCCCCCCCCn1ccnc1 [I-ol],Kd,0.578 µM
